Data: paper PMC9995905, “Characteristics of antimicrobial peptide OaBac5mini and its bactericidal mechanism against Escherichia coli” (Frontiers in Veterinary Science, 2023)
Entries after “also recorded” stand apart in the source; their conditions may differ. Where no end group is shown, it is not given here.

How the values were obtained:
[1] = system: E. coli ATCC 25922; test: Permeability of the outer membrane (NPN uptake); type: cell-based, Escherichia coli; conditions: 25, 50, 100 and 200 μg/ml; 10 μM NPN; 60 min; P < 0.01; n = 3
Protocol: The NPN uptake assay was conducted following the instructions of […] and […] ([25]) with minor modifications. In brief, E. coli. […] Fluorescence units were monitored immediately using INFINITE 200 PRO (Infinite® 2000, TECAN, Austria) at the excitation wavelength of 350 nm and emission wavelength of 420 nm for 100 min at 5 min intervals. Experiments were performed in biological triplicate.

[2] = system: E. coli ATCC 25922; test: Time-kill curve; type: cell-based, Escherichia coli; conditions: MH broth, 37°C, 5×10^5 CFU/ml, triplicate
Protocol: To investigate the time-kill effect of OaBac5mini against E. coli ATCC 25922, bacteria (5×10^5 CFU/ml) were cultured in fresh Mueller-Hinton (MH) broth (Yashi Organisms, China) with different concentrations of OaBac5mini (0, 50, 100, and 200 μg/ml) at 37°C with shaking at the speed of 220 rpm. Equal amounts (100 μl) of E. coli ATCC 25922 from each sample were withdrawn at 0, 2, 4, 6, 8, 10, 12, and 24 h, diluted with Luria-Bertani (LB) broth (Solarbio, China) and plated onto LB agar plates. Plates were placed at 37°C for 18 h for the CFU counts.

[3] = system: trypsin; test: Digestive enzyme sensitivity (inhibition zone assay); conditions: 37°C, 3 h, 50 μg/ml peptide, inhibition zone assay against E. coli ATCC 25922, repeated three times
Protocol: The sensitivities of OaBac5mini to different pH, temperature, digestive enzymes, and repeated freeze-thawing conditions were determined using the inhibition zone assay as previously described ([23]). For pH sensitivity, OaBac5mini was diluted with each solution whose pH was individually adjusted to 2, 3, 4, 5, 6, 7, 8, 9, 10, 11 with HCl or NaOH, and incubated for 2 h, followed by adjusting the pH to 7 to end the reaction. For temperature sensitivity, the diluted peptide was incubated at 30, 40, 50, 60, 70, 80, 90, and 100°C for 30 min. To determine the digestive enzymes sensitivity, OaBac5mini was incubated with 100 μg/ml pepsin (in pH 2 sterile water, sigma, USA), 5–100 μg/ml trypsin (in pH 6.8 KH2PO4 buffer, sigma, USA) and 100 μg/ml protease K (Solarbio, China) at 37°C for 3 h, respectively. To end the reaction after incubation, the pepsin buffer was adjusted to pH 8, the trypsin solution and protease K solution were incubated at 95°C for 10 min. For repeated freeze-thawing sensitivity, OaBac5mini was frozen and then thawed at room temperature 0–12 times. All the final concentrations of OaBac5mini in sensitivity tests were 50 μg/ml. All experiments were repeated three times.

[4] = system: S. aureus B5; test: microbe, parasite or virus in culture; conditions: B5
Text: (§1) The strains of E. coli ATCC 25922 and S. aureus ATCC 25923 were purchased from the American Type Culture Collection (ATCC, Manassas, VA, United States). The strains of E. coli W13, E. coli IF4, E. coli 2, and E. coli 17 were individually isolated from the livers of diseased chickens infected by E. coli. The strains of S. aureus B5, S. aureus B9, S. aureus B54, and S. aureus B63 were individually isolated from the milk of cows with mastitis. These clinical isolates were all identified by the VITEK-32 system (bioMérieux, France) and PCR amplification sequencing.
(§2) MICs of OaBac5mini, amoxicillin, kanamycin, florfenicol and tetracycline were determined using the two-fold broth microdilution method according to the Clinical and Laboratory Standards Institute (CLSI) guidance ([21]). MIC values of the tested antibacterial agents were determined on three independent occasions. Escherichia coli ATCC 25922 was used as the quality control in all the susceptibility tests.

[5] = system: E. coli IF4; test: microbe, parasite or virus in culture; conditions: IF4
Text: as §1, §2

[6] = system: E. coli 17; test: microbe, parasite or virus in culture; conditions: 17
Text: as §1, §2

[7] = system: S. aureus B54; test: microbe, parasite or virus in culture; conditions: B54
Text: as §1, §2

[8] = system: S. aureus B9; test: microbe, parasite or virus in culture; conditions: B9
Text: as §1, §2

[9] = system: S. aureus B63; test: microbe, parasite or virus in culture; conditions: B63
Text: as §1, §2

[10] = system: E. coli W13; test: microbe, parasite or virus in culture; conditions: W13
Text: as §1, §2

[11] = system: E. coli 2; test: microbe, parasite or virus in culture; conditions: 2
Text: as §1, §2

RFRPPIRRPPIRPPFRPPFRPPVR [OaBac5mini]
Average fluorescence intensity of NPN (outer membrane permeability) compared with the negative control [1]: significantly increased | Time-kill effect at 50 μg/ml (2 × MIC) ([2]; 50 μg/ml, 24 h): the number of bacteria remained stable in the first co-incubation for 8h before it increased | Time-kill effect at 100 μg/ml ([2]; 100 μg/ml, 24 h): decrease after co-incubation for 12 h and increase in further co-incubation for 12 h | Time-kill effect at 200 μg/ml (8 × MIC) ([2]; 200 μg/ml, co-incubation for 12 h): could effectively kill; also recorded: effectively killed | Antibacterial activity after treatment with trypsin 20 to 100 μg/ml ([3]; trypsin 20 to 100 μg/ml in pH 6.8 KH2PO4 buffer): completely lost activity | Antibacterial activity after treatment with trypsin at low concentrations ([3]; trypsin ≤ 10 μg/ml (< 20 μg/mL) in pH 6.8 KH2PO4 buffer): stable antibacterial activity; also recorded: no significant effect | MIC against S. aureus B5 [4]: >250 µg/mL | MIC against E. coli IF4 [5]: 2.60 µg/mL | MIC against E. coli 17 [6]: 3.26 µg/mL | MIC against S. aureus B54 [7]: 250 µg/mL | MIC against S. aureus B9 [8]: 250 µg/mL | MIC against S. aureus B63 [9]: 208.33 µg/mL | MIC against E. coli W13 [10]: 3.26 µg/mL | MIC against E. coli 2 [11]: 1.95 µg/mL
